Measured values reported in US20040180322A1, “Regional intestinal permeability model” (priority 2000, published 2004).
Each block holds one compound with its values, some of them ahead of it. Where a SMILES comes first, the peptide text is derived from it. [ ]: non-standard residue; d: D form. Sar = CNCC(=O)O

Tests used:
Caco-2 [1] = assay: Caco-2 transepithelial transport with apical FaSSIF versus Mes (Experiment Three); assay type: in vitro ADME; conditions: for increase of A→B permeability with apical FaSSIF / increase of B→A permeability with apical FaSSIF: Caco-2, apical FaSSIF pH 6.5 compared with Mes pH 6.5
Procedure: Methods. […] Caco-2 transepithelial transport studies were performed using a standardized 24-well transwell format (20-24 day culture/passage 30-40). The transport experiments were performed using 0.3 mL apical solution either Ringers (pH 7.4), Mes (pH 6.5), or FaSSIF (pH 6.5, calcium free) and 1.2 mL basolateral solution (Ringer's buffer: pH 7.4, 290 mOsm/kg, 25 mM glucose). […] and B→A permeability was studied at 37° C., 50 opm, 95% humidity, and 5% CO2 using a 100 μM donor concentration with 1% DMSO. Monolayer integrity was evaluated by TEER measurements. Rabbit regional intestinal permeability studies were conducted using the Ussing side-by-side diffusion chamber, with volumes of 1.5 mL on each side. Intestinal segments (duodenum/jejunum/ileum/descending colon) were harvested from male New Zealand white rabbits (2.5-3.0 kg), stripped of the muscle layers and mounted in the chambers.

Caco-2 [2] = assay: Caco-2 transepithelial transport at different apical pH, buffers and CO2 incubation (Experiment Two); assay type: in vitro ADME; conditions: for decrease of A to B Peff in the absence of CO2: Caco-2, pH 7.4 Ringers without CO2, pH shifted to 7.8-8.0; for increase of A to B Effective Permeability (Peff) on change of apical pH from 7.4 to 6.5 / decrease of A to B Effective Permeability (Peff) on change of apical pH from 7.4 to 6.5: Caco-2, apical pH 6.5 vs 7.4
Procedure: (§1) Methods. In vitro permeability of various transport marker compounds was investigated using different apical pH's (pH 7.4 and pH 6.5), different buffers (Ringers, Mes, and Hepes), and different incubation (with or without CO2) conditions. Caco-2 transepithelial transport studies were performed using a standardized 24-well transwell format (20-24 day culture/passage 30-40). The apical (A, 0.3 mL volume) and basolateral (B, 1.2 mL volume) reservoirs were filled with Ringer's buffer (pH 7.4, 290 mOsm/kg), containing 25 mM glucose. A→B and B→A permeability was studied at 37° C., 50 opm, 95% humidity, and 5% CO2 using a 100 μM donor concentration with 1% DMSO. Monolayer integrity was evaluated by transepithelial electrical resistance (TEER) measurements.

[3] = Caco-2 monolayer A to B permeability of marker compounds, standardized conditions (Experiment One); conditions: human, Caco-2, pH 7.4
[4] = Caco-2 transepithelial transport at different apical pH, buffers and CO2 incubation (Experiment Two); assay type: in vitro ADME; conditions: human
Procedure: as §1

Caco-2 [5] = conditions: cited from earlier work; for range of in vitro permeability values in inter-laboratory Caco-2: values from 10 references with various culture and transport conditions
Caco-2 [6] = assay: Inter-laboratory Caco-2 permeability values of marker compounds collected from references; assay type: in vitro ADME; conditions: for variability of in vitro permeability values in inter-laboratory Caco-2: values from 10 references with various culture and transport conditions

Compound: CC(C(=O)O)c1cccc(C(=O)c2ccccc2)c1 (stereo not drawn) [ketoprofen]
- decrease of A to B Peff in the absence of CO2 (Caco-2 [2]): 2 ×

Compound: CC(C)Cc1ccc(C(C)C(=O)O)cc1 (stereo not drawn) [ibuprofen]
- increase of A to B Effective Permeability (Peff) on change of apical pH from 7.4 to 6.5 (Caco-2 [2]): 3 ×

Compound: Polyethylene Glycol [PEG 4000]
- increase of A→B permeability with apical FaSSIF (Caco-2 [1]): 2 fold
- increase of B→A permeability with apical FaSSIF (Caco-2 [1]): 2 fold

Compound: CN(CC(=O)O)C(=O)CN [glycylsarcosine] (H-Gly-[Sar]-OH)
- increase of A to B Effective Permeability (Peff) on change of apical pH from 7.4 to 6.5 (Caco-2 [2]): 6 ×
- decrease of A to B Peff in the absence of CO2 (Caco-2 [2]): 2 ×
- decrease of A→B permeability with apical FaSSIF (Caco-2 [1]; Caco-2, FaSSIF in apical compartment): 2 fold

Compound: COc1cc([C@@H]2c3cc4c(cc3[C@@H](O[C@@H]3O[C@@H]5CO[C@@H](C)O[C@H]5[C@H](O)[C@H]3O)[C@H]3COC(=O)[C@H]23)OCO4)cc(OC)c1O [etoposide]
- efflux ratio at 90 min, 100 μM ([4]; Caco-2, apical pH 6.5): 12
- efflux ratio at 90 min, 100 μM ([4]; Caco-2, apical pH 7.4): 8
- increase of A→B permeability with apical FaSSIF (Caco-2 [1]): 2 fold

Compound: Nc1nc2c(ncn2COCCO)c(=O)[nH]1 [acyclovir]
- increase of A→B permeability with apical FaSSIF (Caco-2 [1]): 3 fold

Further lines, with some results ahead:

- increase of A→B permeability with apical FaSSIF (Caco-2 [1]): 5 fold
Compound: NC(=O)c1ncn([C@@H]2O[C@H](CO)[C@@H](O)[C@H]2O)n1 [ribavirin]

- Papp A→B at 90 min, 100 μM [3]: 28.7 ×10⁻⁶ cm/s
- efflux ratio at 90 min, 100 μM ([4]; Caco-2, apical pH 6.5): > 4
- decrease of A to B Effective Permeability (Peff) on change of apical pH from 7.4 to 6.5 (Caco-2 [2]): 3 ×
- variability of in vitro permeability values in inter-laboratory Caco-2 (Caco-2 [6]): 7 fold
Compound: CC(C)NCC(O)COc1cccc2ccccc12 (stereo not drawn) [propranolol]
- range of in vitro permeability values in inter-laboratory Caco-2 (Caco-2 [5]): 14.8-110 ×10^−6 cm/s

- efflux ratio at 90 min, 100 μM ([4]; Caco-2, apical pH 6.5): 32
- efflux ratio at 90 min, 100 μM ([4]; Caco-2, apical pH 7.4): 4
- decrease of A to B Effective Permeability (Peff) on change of apical pH from 7.4 to 6.5 (Caco-2 [2]): 5 ×
Compound: CC[C@]1(O)C[C@@H]2CN(CCc3c([nH]c4ccccc34)[C@@](C(=O)OC)(c3cc4c(cc3OC)N(C)[C@H]3[C@@](O)(C(=O)OC)[C@H](OC(C)=O)[C@]5(CC)C=CCN6CC[C@]43[C@@H]65)C2)C1 [vinblastine]

- Papp A→B at 90 min, 100 μM [3]: 0.461 ×10⁻⁶ cm/s
- increase of A→B permeability with apical FaSSIF (Caco-2 [1]): 3 fold
- increase of B→A permeability with apical FaSSIF (Caco-2 [1]): 11 fold
- variability of in vitro Apparent Permeability (Papp) values from published references (Caco-2 [6]; published references): 345 fold
- variability of in vitro permeability values in inter-laboratory Caco-2 (Caco-2 [6]): 9 fold
Compound: OC[C@@H](O)[C@@H](O)[C@H](O)[C@H](O)CO [mannitol]
- range of in vitro Apparent Permeability (Papp) values from published references (Caco-2 [5]; published references): 0.019-6.55 ×10^−6 cm/s
- range of in vitro permeability values in inter-laboratory Caco-2 (Caco-2 [5]): 0.38-3.23 ×10^−6 cm/s
